# Data reported in patent US7749992B2, “Compounds and methods for treating dislipidemia” (Eli Lilly and Company, priority 2003, dated 2010).
# Target: T1, human CETP (Homo sapiens, UniProt P11597)
# T1 construct: made in house; host or cells: AV-12 cells (engineered to express human CETP)
# T1 sequence (P11597 18-493): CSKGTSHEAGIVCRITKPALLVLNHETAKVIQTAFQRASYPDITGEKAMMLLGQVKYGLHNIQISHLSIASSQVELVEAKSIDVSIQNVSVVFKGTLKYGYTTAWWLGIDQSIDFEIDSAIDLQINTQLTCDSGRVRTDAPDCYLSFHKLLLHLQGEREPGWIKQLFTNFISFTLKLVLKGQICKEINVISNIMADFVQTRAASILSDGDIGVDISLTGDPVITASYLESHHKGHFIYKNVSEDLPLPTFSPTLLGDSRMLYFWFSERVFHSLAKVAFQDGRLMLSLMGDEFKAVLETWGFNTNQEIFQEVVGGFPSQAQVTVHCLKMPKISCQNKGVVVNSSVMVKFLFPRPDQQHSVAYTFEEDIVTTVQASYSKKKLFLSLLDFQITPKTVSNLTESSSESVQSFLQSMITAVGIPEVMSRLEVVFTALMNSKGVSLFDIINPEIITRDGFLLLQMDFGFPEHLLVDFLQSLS
# Assay: In vitro CETP inhibitor assay: SPA assay
# Type: biochemical
# Details: CETP produced by AV-12 cells expressing human CETP; [3H]cholesterol ester transfer from HDL to biotinylated LDL; 30-minute incubation at 37 C; HEPES-NaCl based buffer; read-out: Inhibition of CETP Activity (SPA assay) IC50
# Procedure: An in vitro scintillation proximity assay (SPA) has been used to test the ability of compounds of this invention to inhibit the transfer of radiolabeled cholesterol esters between HDL and LDL. This assay monitors the inhibition of the transfer of [^3H]cholesterol esters from HDL (Amersham) to biotinylated LDL (Amersham) by a CETP source. CETP produced by AV-12 cells that have been created to express human CETP has been used to mediate the transfer. After a 30-minute incubation at 37 C in which the radiolabeled cholesterol ester is transferred in a HEPES-NaCl based buffer, the reaction is stopped and the biotinylated LDL is bound to streptavidin/scintillant coated SPA beads (Amersham). Then the radioactive signal is measured in a Packard 96-well scintillation TopCounter with window settings fully open. Compounds of this invention can be added to the reaction mixture in an appropriate solvent to assess their ability to inhibit the transfer of the radiolabeled cholesterol esters by CETP, represented by a decrease in radioactive signal. The activity transferred in the reaction mixtures with control solvents is rated as 100% transfer. The compound concentration at which the activity is midway between 100% and the lowest recorded activity is indicated as the IC50 value. A three-parameter fixed top logistic curve-fitting algorithm is used to generate the IC50 value.
row,Structure (SMILES),IC50 [nM]
1,"CC(=O)N(Cc1cc(C(F)(F)F)cc(C(F)(F)F)c1)C1CCCN(C(=O)OC(C)C)c2c1ccc1c2CCC1 (racemic) [Example 129, (+/−)-6-[Acetyl-(3,5-bis-trifluoromethyl-benzyl)-amino]-2,3,6,7,8,9-hexahydro-1H-10-aza-cyclohepta[e]indene-10-carboxylic acid isopropyl ester]",54
2,"CC(=O)N(Cc1cc(C(F)(F)F)cc(C(F)(F)F)c1)C1CCCN(C(=O)OC(C)C)c2ccccc21 (stereo not shown) [Example 1, 5-[Acetyl-(3,5-bis-trifluoromethyl-benzyl)-amino]-2,3,4,5-tetrahydro-benzo[b]azepine-1-carboxylic acid isopropyl ester]",293
3,"CC(=O)N(Cc1cc(C(F)(F)F)cc(C(F)(F)F)c1)[C@H]1CCCN(C(=O)OC(C)C)c2cc(C(F)(F)F)c(C)cc21 [Example 111, (S)-5-[Acetyl-(3,5-bis-trifluoromethyl-benzyl)-amino]-7-methyl-8-trifluoromethyl-2,3,4,5-tetrahydro-benzo[b]azepine-1-carboxylic acid isopropyl ester]",68
4,"CC(=O)N(Cc1cc(C(F)(F)F)cc(C(F)(F)F)c1)C1CCCN(C(=O)OC(C)(C)C)c2cc(C(F)(F)F)c(C)cc21 (stereo not shown) [Example 117, 5-[Acetyl-(3,5-bis-trifluoromethyl-benzyl)-amino]-7-methyl-8-trifluoromethyl-2,3,4,5-tetrahydro-benzo[b]azepine-1-carboxylic acid tert-butyl ester]",65
5,"CC(=O)N(Cc1cc(C(F)(F)F)cc(C(F)(F)F)c1)[C@H]1CCCN(C(=O)OC(C)(C)C)c2cc(C(F)(F)F)c(C)cc21 [Example 119, (S)-5-[Acetyl-(3,5-bis-trifluoromethyl-benzyl)-amino]-7-methyl-8-trifluoromethyl-2,3,4,5-tetrahydro-benzo[b]azepine-1-carboxylic acid tert-butyl ester]",42
6,"CC(=O)N(Cc1cc(C(F)(F)F)cc(C(F)(F)F)c1)C1CCCN(C(=O)OC2CCCC2)c2cc(OC(F)(F)F)c(C)cc21 (stereo not shown) [Example 182, 5-[Acetyl-(3,5-bis-trifluoromethyl-benzyl)-amino]-7-methyl-8-trifluoromethoxy-2,3,4,5-tetrahydro-benzo[b]azepine-1-carboxylic acid cyclopentyl ester]",191

# Tested on: transgenic mice that express both human CETP and human apolipoprotein A-1
# Assay: Assay of plasma lipids in vivo (elevation of HDL cholesterol)
# Details: single oral dose 30 mg/kg; at 8 hr; serum HDL cholesterol relative to control
# Procedure: Activity of compounds of this invention in vivo can be determined by the level of elevation of HDL cholesterol relative to control by a given amount of compound in a CETP-containing animal species. A strain of transgenic mice that express both human CETP and human apolipoprotein A-1 (Taconic, Germantown, N.Y.) is used to test compounds of this invention. Test compounds are administered once orally in selected aqueous or oil based vehicles. At various times after dosing, ranging from 4 h to 24 h, blood is obtained. Blood is allowed to clot and serum is obtained by centrifugation. HDL cholesterol levels in the serum is determined by HDL-C plus reagents (Roche/Hitachi, Indianapolis, Ind.) with a clinical chemistry analyzer (Roche/Hitachi, Indianapolis, Ind.). Additional serum lipids can be analyzed by enzymatic methods. Lipids in the VLDL, LDL and HDL fractions are analyzed by enzymatic methods after precipitation or size exclusion chromatography.
row,Structure (SMILES),% HDL cholesterol increase [%]
1,"CC(=O)N(Cc1cc(C(F)(F)F)cc(C(F)(F)F)c1)[C@H]1CCCN(C(=O)OC(C)(C)C)c2cc(C(F)(F)F)c(C)cc21 [Example 119, (S)-5-[Acetyl-(3,5-bis-trifluoromethyl-benzyl)-amino]-7-methyl-8-trifluoromethyl-2,3,4,5-tetrahydro-benzo[b]azepine-1-carboxylic acid tert-butyl ester]",123
